Measurements as given in patent US11325937B2, “Glycoside compound and preparation method therefor, composition, application, and intermediate” (SHANGHAI HUTCHISON PHARMACEUTICALS LIMITED, priority 2018, dated 2022).

Assays:
[1] = Acute toxicity test of TG-028; assay type: in vivo
Protocol: In addition, an acute toxicity test of TG-028 was conducted.

[2] = tested on: HUVEC-12 endothelial cells; assay: Proliferation of HUVEC-12 endothelial cells (MTT); assay type: cell-based, Human; settings: HUVEC-12 treated with supernatant of macrophages co-incubated 24 h with compound, 10 μM (s- groups)
Protocol: The experiment included seven groups. In Group 1, HUVEC-12 endothelial cells (purchased from Shanghai RongChuang Biotech Co., Ltd.) were treated directly with simple DMEM medium (Gibcol, Shanghai) containing 10% FBS ([…], Germany) (control). In Group 2, the endothelial cells were treated with the supernatant obtained 24 h after macrophages were cultured with DMEM medium containing 10% FBS (s-control). […] In Group 5, the endothelial cells cultured with DMEM medium containing 10% FBS were treated directly with Cpd-18 (Salvianolate) (cpd-18, 10 μM). In Group 6, the endothelial cells were treated with the supernatant obtained after macrophages cultured with DMEM medium containing 10% FBS were treated and co-incubated with Cpd-18 (Salvianolate, 10 μM) for 24 h (s-cpd18). In Group 7, the endothelial cells cultured with DMEM medium containing 10% FBS were treated directly with VEGFD (Recombinant Human VEGF165, 10 ng/mL). Human umbilical vein endothelial cells HUVEC-12 in logarithmic growth phase were counted, adjusted to a cell density of 2.5×10^4 cells/mL, and inoculated in 100 μL per well in a 96-well plate. […] Based on the measured absorbance (OD), the HUVEC-12 endothelial cells treated directly with simple DMEM medium (control) were used as a blank control (Group 1), the percentage of cell proliferation in each group was calculated, and compared. […]

[3] = tested on: HUVEC-12 endothelial cells; assay: Tubule formation of HUVEC-12 endothelial cells (Matrigel); assay type: cell-based, Human
Protocol: The experiment included seven groups. In Group 1, HUVEC-12 endothelial cells (purchased from Shanghai RongChuang Biotech Co., Ltd.) were treated directly with simple DMEM medium (Gibcol, Shanghai) containing 10% FBS (SERANA, Germany) (control). In Group 2, the endothelial cells were treated with the supernatant obtained 24 h after macrophages were cultured with DMEM medium containing 10% FBS (s-control). In Group 3, the endothelial cells cultured with DMEM medium containing 10% FBS were treated directly with TG-028 (TG-028, 10 μM). In Group 4, the endothelial cells were treated with the supernatant obtained after macrophages cultured with DMEM medium containing 10% FBS were treated and co-incubated with TG-028 for 24 h (s-TG-028, […]). In Group 5, the endothelial cells cultured with DMEM medium containing 10% FBS were treated directly with Cpd-18 (Salvianolate) (cpd-18, 10 μM). In Group 6, the endothelial cells were treated with the supernatant obtained after macrophages cultured with DMEM medium containing 10% FBS were treated and co-incubated with Cpd-18 (Salvianolate, 10 μM) for 24 h (s-cpd18). In Group 7, the endothelial cells cultured with DMEM medium containing 10% FBS were treated directly with VEGFD (Recombinant Human VEGF165, 10 ng/mL).
A 96-well plate and sterile yellow pipette tip were stored overnight in a refrigerator at −20° C. The packed Matrigel was thawed overnight in a refrigerator at 4° C. before the experiment. On the following day, the Matrigel thawed was centrifuged for a few minutes. 60 μL per well of the pre-cooled Matrigel was added to a 96-well plate in an ice bath on a ultra-clean bench, and then allowed to stand in an incubator for 1 h. After Matrigel was solidified, HUVEC-12 cells in logarithmic growth phase were taken and adjusted for the cell density. The cells were well mixed with each group of medium at a density of 5×10^4 cells/well and inoculated into a 96-well plate. […] The tube-like structure was analyzed by ImageJ image-analysis software, and the tube formation ability was evaluated using number of master junction as a quantitative index.

COc1ccc(CCCCO[C@@H]2O[C@H](CO)[C@@H](O)[C@H](O)[C@H]2O)cc1 [TG-028]
therapeutic index LD50/ED50 ([1]; 616.59/2.61): 236 | LD50 ([1]; in vivo, acute toxicity test): 617 mg/kg | promotion of proliferation of endothelial cells (in words) [2]: more potent promotion on the proliferation of endothelial cells than the direct treatment of endothelial cells with VEGF | effect on tube formation of endothelial cells (in words) ([3]; HUVEC-12 treated with supernatant of macrophages co-incubated 24 h with compound, 10 μM (s- groups)): comparable effect on the tube formation of endothelial cells as VEGF | effect on tube formation of endothelial cells (in words) ([3]; direct treatment of HUVEC-12, 3 h, compounds 10 μM, VEGF165 10 ng/mL, vs control medium): significant effect on the tube formation of endothelial cells
